Read-outs that look alike come from different tables or passages of the source.
Columns and labels:
human CB2 (hCB2) = target: T1, human CB2 (hCB2) (Homo sapiens, UniProt P34972); assay: 35S GTPγS binding assay, hCB2 agonist; type: biochemical
T1 construct: (cDNA clone) CNR0200000
Procedure: (§1) cDNA expression clones for human CB1 (hCB1, Genbank Accession No. AY225225) and human CB2 (hCB2, Genbank Accession No. AY242132) expressed in vector pcDNA3.1+ were purchased from UMR cDNA Resource Center, Rolla, Mo. (Clone ID CNR01L000 for hCB1; CNR0200000 for hCB2).
Membranes were isolated from transfected cells as follows. Monolayers of cultured cells were washed twice with phosphate-buffered saline (PBS). […] Homogenates were centrifuged 10 minutes at 1000×g at 4° C. The supernatant was collected and was centrifuged for 1 hour at 40,000×g. The supernatant was then decanted and the resulting pellet was re-suspended in 20 mM HEPES, pH 7.4, 5 mM MgCl2, 1 mM EDTA, 10% sucrose with complete cocktail protease inhibitors. Protein concentration of membrane suspensions were measured by Bradford Protein Assay using bovine serum albumin as the standard (BioRad catalog #500-0006). Protein concentrations of membrane suspensions were adjusted with the final buffer in the range of 5 to 10 mg/mL and were stored at −80° C. until further use.
(§2) Functional assays which monitor G-protein coupled receptor or downstream cellular responses can be used to characterize potential CB1 receptor and/or CB2 receptor agonist or antagonist activities. Direct activation (or inhibition of activation) can be monitored using a GTPγS assay (membrane-based assay) or cAMP assay (whole cell-based assay).
(§3) ^35S GTPγS binding assays were performed by incubating recombinant cell membranes prepared above (5 μg) in the presence of scintillation proximity assay beads (SPA beads, Catalog #RPNQ0252 GE Healthcare, Buckinghamshire, England) in GTPγS binding buffer [50 mM HEPES (pH 7.4), 100 mM NaCl, 5 mM MgCl2, 0.001% saponin (Sigma catalog #S4521)] supplemented with 20 uM GDP (Sigma catalog #G7127) in the presence or absence of test compound. The reaction was carried out in 96-well microplates with 0.1 nM [^35S]GTPγS (specific activity=1250 Ci/mmol; Perkin Elmer catalog #NEG030X250UC) in a final volume of 100 uL. After a 90 min room temperature incubation, the reaction was analyzed using a scintillation counter (Perkin Elmer Microbeta instrument). Binding data were analyzed using GraphPad Prism.

human CB1 (hCB1) = target: T2, human CB1 (hCB1) (Homo sapiens, UniProt P21554); assay: 35S GTPγS binding assay, hCB1 agonist; type: biochemical; conditions: GTPγS agonist, HEK-293 membranes; read-out: hCB1 EC50 (GTPyS ag)
T2 construct: (cDNA clone) CNR01L000
T2 sequence (P21554 whole entry): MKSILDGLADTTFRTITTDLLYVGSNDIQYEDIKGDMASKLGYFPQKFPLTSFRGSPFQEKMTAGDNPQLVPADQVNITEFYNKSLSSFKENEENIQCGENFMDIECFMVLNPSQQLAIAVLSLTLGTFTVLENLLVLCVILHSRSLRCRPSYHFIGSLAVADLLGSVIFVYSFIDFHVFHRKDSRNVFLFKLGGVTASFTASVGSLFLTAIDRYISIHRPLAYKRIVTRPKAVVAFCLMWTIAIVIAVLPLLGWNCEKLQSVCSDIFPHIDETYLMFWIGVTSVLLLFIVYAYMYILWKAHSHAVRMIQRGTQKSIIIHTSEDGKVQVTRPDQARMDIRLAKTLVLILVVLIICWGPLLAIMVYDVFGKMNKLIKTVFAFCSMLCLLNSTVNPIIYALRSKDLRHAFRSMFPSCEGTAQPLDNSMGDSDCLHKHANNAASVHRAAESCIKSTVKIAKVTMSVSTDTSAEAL
Description: as §1
Stable, HEK-293-derived cell lines that recombinantly express hCBI or hCB2 were established. In brief, the clone hCB1 (CNR IL) or hCB2 (CNR2) was transfected into human embryonic kidney cells (HEK-293) using Lipofectamine 2000 (Gibco, Cat#11668-019) according to the manufacturer's protocol. Transfected clones were isolated by single colony purification and clones were screened for receptor expression using a whole cell, ^3H—CP 55,940 radioligand binding assay. HEK-293 stable cells were maintained in Dulbecco's modified Eagles medium (DMEM) containing 10% fetal bovine serum, 2 mM L-glutamine and 0.5 mg/mL G-418.
Membranes were isolated from transfected cells as follows. Monolayers of cultured cells were washed twice with phosphate-buffered saline (PBS). Cells were scraped into 20 mM HEPES, pH 7.4, 10 mM EDTA containing complete cocktail protease inhibitors (Roche, Catalog #11 697 498 001) and were homogenized by an electric-powered mechanical probe homogenizer (Omni GLH; probe G7-195S) for 40 seconds at 7000 rpm. Homogenates were centrifuged 10 minutes at 1000×g at 4° C. The supernatant was collected and was centrifuged for 1 hour at 40,000×g. The supernatant was then decanted and the resulting pellet was re-suspended in 20 mM HEPES, pH 7.4, 5 mM MgCl2, 1 mM EDTA, 10% sucrose with complete cocktail protease inhibitors. Protein concentration of membrane suspensions were measured by Bradford Protein Assay using bovine serum albumin as the standard (BioRad catalog #500-0006). Protein concentrations of membrane suspensions were adjusted with the final buffer in the range of 5 to 10 mg/mL and were stored at −80° C. until further use.
as §2, §3

human CB2 receptors = target: T3, human CB2 receptors (Homo sapiens, UniProt P34972); assay: cAMP assay in HEK-293 cells, hCB2 agonist; type: cell-based
T3 construct: (cDNA clone) CNR0200000
T3 sequence (P34972 whole entry): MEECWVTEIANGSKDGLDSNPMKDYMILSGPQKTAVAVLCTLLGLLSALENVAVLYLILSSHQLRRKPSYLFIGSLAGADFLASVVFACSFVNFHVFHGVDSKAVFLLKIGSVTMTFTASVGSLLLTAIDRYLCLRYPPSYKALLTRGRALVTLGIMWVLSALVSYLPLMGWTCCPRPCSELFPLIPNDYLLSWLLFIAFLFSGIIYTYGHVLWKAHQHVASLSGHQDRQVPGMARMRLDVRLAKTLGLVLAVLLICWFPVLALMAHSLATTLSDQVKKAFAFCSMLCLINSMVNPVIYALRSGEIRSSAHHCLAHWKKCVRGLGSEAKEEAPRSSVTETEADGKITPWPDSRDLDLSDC
How it was run: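 HEK-293 cells stably expressing human CB2, suspended at 1,500,000 cells/mL in HBSS with 10 mM HEPES and 0.1% fatty-acid-free BSA, exposed to test compound plus forskolin (90 uM in the 3× compound solution) for 30 min at 37° C.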

human CB1 receptors = target: T4, human CB1 receptors (Homo sapiens, UniProt P21554); assay: cAMP assay in HEK-293 cells, hCB1 agonist; type: cell-based; conditions: inhibition of forskolin-stimulated cAMP, HEK-293 cells
T4 construct: (cDNA clone) CNR01L000
T4 sequence (P21554 whole entry): as the sequence (P21554 whole entry) above
How it was run: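 Stable hCB1 HEK-293 cells suspended in HBSS with 10 mM HEPES and 0.1% fatty acid-free BSA, incubated 30 min at 37° C. with compound plus forskolin (90 uM in the 3× compound solution). Lysed cAMP measured by enzyme-fragment kit; EC50 = 50% inhibition of forskolin-stimulated cAMP (forskolin maximum = 100%), sigmoidal fit.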

[1] = GTPγS agonist, HEK-293 membranes, read-out: hCB2 EC50 (GTPyS ag)
[2] = inhibition of forskolin-stimulated cAMP, HEK-293 cells, read-out: hCB2 EC50 (cAMP ag)
[3] = inhibition of forskolin-stimulated cAMP, HEK-293 cells

T1 sequence (P34972 whole entry): as the sequence (P34972 whole entry) above

Structure (SMILES) | EC50 (human CB2 (hCB2)) [µM] | EC50 (human CB1 (hCB1)) [µM] | EC50 (human CB2 receptors) [µM] | hCB1 EC50 (cAMP ag, nM) (human CB1 receptors) | EC50 (human CB2 (hCB2); [1]) [µM] | EC50 (human CB2 receptors; [2]) [µM] | hCB2 EC50 (cAMP ag, nM) (human CB2 receptors; [3])
COc1ccc(C(=O)c2cc3cc(C)n(CC4CCOC4)c3s2)cn1 (centres unmarked) [Compound 159, (6-methoxypyridin-3-yl)(5-methyl-6-((tetrahydrofuran-3-yl)methyl)-6H-thieno[2,3-b]pyrrol-2-yl)methanone] | > 10 | > 10 | 1 to 10 | NS (NS means “Not Significant,” which means less than 30% agonist activity when compared to the positive control.) |  |  | 
COc1ccc(C(=O)c2cc3cc(C)n(CCN4CCOC(C)(C)C4)c3s2)cn1 [Compound 162, (6-(2-(2,2-dimethylmorpholino)ethyl)-5-methyl-6H-thieno[2,3-b]pyrrol-2-yl)(6-methoxypyridin-3-yl)methanone] |  | > 10 |  | NS (NS means “Not Significant,” which means less than 30% agonist activity when compared to the positive control.) | > 10 | 0.1 to 1 | 
COc1ccc(C(=O)c2cc3cc(C)n(CCNC4CCOCC4)c3s2)cn1 [Compound 163, (6-methoxypyridin-3-yl)(5-methyl-6-(2-((tetrahydro-2H-pyran-4-yl)amino)ethyl)-6H-thieno[2,3-b]pyrrol-2-yl)methanone] | 1 to 10 | > 10 | 0.1 to 1 | NS (NS means “Not Significant,” which means less than 30% agonist activity when compared to the positive control.) |  |  | 
COc1ccc(C(=O)c2cc3cc(C)n(CC(=O)O)c3s2)cn1 [Compound 166, 2-(2-(6-methoxynicotinoyl)-5-methyl-6H-thieno[2,3-b]pyrrol-6-yl)acetic acid] |  | > 10 |  | NS (NS means “Not Significant,” which means less than 30% agonist activity when compared to the positive control.) | > 10 |  | NS (NS means “Not Significant,” which means less than 30% agonist activity when compared to the positive control.)
COC(=O)Cn1c(C)cc2cc(C(=O)c3ccc(OC)nc3)sc21 [Compound 168, Methyl 2-(2-(6-methoxynicotinoyl)-5-methyl-6H-thieno[2,3-b]pyrrol-6-yl)acetate] |  | > 10 |  | NS (NS means “Not Significant,” which means less than 30% agonist activity when compared to the positive control.) | > 10 |  | 
COc1ccc(C(=O)c2cc3cc(C)n(C[C@@H]4COCCN4C)c3s2)cn1 [Compound 171, (R)-(6-methoxypyridin-3-yl)(5-methyl-6-((4-methylmorpholin-3-yl)methyl)-6H-thieno[2,3-b]pyrrol-2-yl)methanone] | > 10 | > 10 |  | NS (NS means “Not Significant,” which means less than 30% agonist activity when compared to the positive control.) |  |  | 
COc1ccc(C(=O)c2cc3cc(C)n(CC4CCNCC4)c3s2)cn1 [Compound 172, (6-methoxypyridin-3-yl)(5-methyl-6-(piperidin-4-ylmethyl)-6H-thieno[2,3-b]pyrrol-2-yl)methanone] |  | > 10 |  | NS (NS means “Not Significant,” which means less than 30% agonist activity when compared to the positive control.) | > 10 |  | NS (NS means “Not Significant,” which means less than 30% agonist activity when compared to the positive control.)
COc1ccc(C(=O)c2cc3cc(C)n(C)c3s2)cn1 [Compound 174, (5,6-dimethyl-6H-thieno[2,3-b]pyrrol-2-yl)(6-methoxypyridin-3-yl)methanone] |  | > 10 |  | NS (NS means “Not Significant,” which means less than 30% agonist activity when compared to the positive control.) | > 10 |  | 
COc1ccc(C(=O)c2cc3cc(C)n(CC(=O)O)c3s2)c(F)c1 [Compound 176, 2-(2-(2-fluoro-4-methoxybenzoyl)-5-methyl-6H-thieno[2,3-b]pyrrol-6-yl)acetic acid] |  | > 10 |  | NS (NS means “Not Significant,” which means less than 30% agonist activity when compared to the positive control.) | > 10 | < 0.1 | 
COc1ccc(C(=O)c2cc3cc(C)n(CC4COCCO4)c3s2)cn1 (centres unmarked) [Compound 177, (6((1,4-dioxan-2-yl)methyl)-5-methyl-6H-thieno[2,3-b]pyrrol-2-yl)(6-methoxypyridin-3-yl)methanone] | 1 to 10 | > 10 | 1 to 10 | NS (NS means “Not Significant,” which means less than 30% agonist activity when compared to the positive control.) |  |  | 
COc1ccc(C(=O)c2cc3cc(C)n(CCN4CCCC4COCc4ccccc4)c3s2)cn1 (centres unmarked) [Compound 178, (6-(2-(2-((benzyloxy)methyl)pyrrolidin-1-yl)ethyl)-5-methyl-6H-thieno[2,3-b]pyrrol-2-yl)(6-methoxypyridin-3-yl)methanone] | > 10 | > 10 |  | NS (NS means “Not Significant,” which means less than 30% agonist activity when compared to the positive control.) |  |  | NS (NS means “Not Significant,” which means less than 30% agonist activity when compared to the positive control.)
COc1ccc(C(=O)c2cc3cc(C)n(CC4CCN(C(=O)OC(C)(C)C)CC4)c3s2)cn1 [Compound 179, tert-butyl 4((2-(6-methoxynicotinoyl)-5-methyl-6H-thieno[2,3-b]pyrrol-6-yl)methyl)piperidine-1-carboxylate] |  | > 10 |  | NS (NS means “Not Significant,” which means less than 30% agonist activity when compared to the positive control.) | > 10 |  | 
COc1ccc(C(=O)c2cc3cc(C)n(CCN4CCC(C(F)(F)F)CC4)c3s2)cn1 [Compound 181, (6-methoxypyridin-3-yl)(5-methyl-6-(2-(4-(trifluoromethyl)piperidin-1-yl)ethyl)-6H-thieno[2,3-b]pyrrol-2-yl)methanone] | 0.1 to 1 | 1 to 10 |  |  |  |  | NS (NS means “Not Significant,” which means less than 30% agonist activity when compared to the positive control.)

— patent US20130029970A1 (priority 2009, published 2013)
